Measured values from paper PMC7937321 (Genes and Environment, 2021).

Legend:
[1] = test system: human lymphoblastoid TK6 cells, thymidine kinase gene; test: TK gene mutation assay (TK6 assay, OECD TG490); conditions: for MF: graph data
Protocol: In principle, this collaborative study conducted the treatment of test substances, the dose finding, and the main test of TK6 assays, according to the OECD Guideline TG490 [17]. […] Briefly, test substances were dissolved in an appropriate solvent (DMSO or ethanol) and then serially diluted to prepare final concentrations. […] The 4 h and 24 h treatments were conducted by shaking and static exposures, respectively. After treatment with test substances, cells were centrifuged (1000 rpm, 5 min), supernatants were removed, and cells were washed with a serum-free medium or Hank’s Balanced Salt Solution. After centrifugation (1000 rpm, 5 min) to remove the supernatant, cells (2 × 10^7 cells) were dispersed in an RPMI medium containing 10% serum, and cell concentration was measured. Treated cells were cultured at 37 °C with 5% CO2 condition and used for TK6 assays. At that time, to calculate the cloning efficiency (CE) (Eq. 1), the cells were cultured in a 96-well microplate at a concentration of about 1.6 cells/well for 2 weeks.
The TK6 assay is conducted between 20 and 10% RS0 as a maximum dose if cytotoxicity is observed. If no precipitate or limiting cytotoxicity was observed, the maximum dose was the lowest concentration among 10 mM, 2 mg/mL, or 2 μL/mL of the test substance. When the main TK6 assay was difficult to conduct under the condition of RS0 values from 20 to 10%, the test was conducted between 20 and 10% relative total growth (RTG), described later, as a maximum dose.
On the third day of culture, CE3 plates for determining plating efficiency and mutant frequency (MF) plates for mutation detection were prepared. CE3 plates were seeded in 96-well microplates at a concentration of about 1.6 cells/well. The MF plates were seeded in 96-well microplates at 40,000 cells/well in the presence of 3 μg/mL of trifluorothymidine (Sigma Aldrich).
Mutant colonies in MF plates were calculated using Eq. 7 using the Poisson distribution. EW was the number of wells without colonies, and TW was the total number of wells. N was the average number of cells per well (N = 40,000 in this study). The data were statistically analyzed by Omori’s method, a modified Dunnett’s procedure for identifying clear negatives, a Simpson–Margolin procedure for detecting downturn data, and a trend test to evaluate the dose dependency [42, 43]. The acceptability criterion for the test was that the MF value of the positive control group of each laboratory was increased with statistical significance compared with that of the concurrent negative control group.

[2] = test system: rodent; conditions: rodent; ref [20]-[41], Table 2; cited from earlier work
[3] = test system: L5178Y mouse lymphoma cells; conditions: ref [27], [46]-[53], Table 3, cited from earlier work
[4] = 24 h treatment, -S9 mix, 173.70 μg/mL
[5] = 24 h treatment, -S9 mix, 277.90 μg/mL
[6] = 24 h treatment, -S9 mix, 444.70 μg/mL
[7] = 24 h treatment, -S9 mix, 711.5 μg/mL
[8] = 24 h treatment, -S9 mix, 1138.4 μg/mL
[9] = 24 h treatment, -S9 mix, 1821.4 μg/mL
[10] = Long-term treatment without metabolic activation
[11] = Short treatment, +S9 mix, dose 173.7 μg/mL
[12] = Short treatment, +S9 mix, dose 277.9 μg/mL
[13] = Short treatment, +S9 mix, dose 445 μg/mL
[14] = Short treatment, +S9 mix, dose 712 μg/mL
[15] = Short treatment, +S9 mix, dose 1138 μg/mL
[16] = Short treatment, +S9 mix, dose 1821 μg/mL
[17] = Short treatment, -S9 mix, dose 173.70 μg/mL
[18] = Short treatment, -S9 mix, dose 277.90 μg/mL
[19] = Short treatment, -S9 mix, dose 444.70 μg/mL
[20] = Short treatment, -S9 mix, dose 711.5 μg/mL
[21] = Short treatment, -S9 mix, dose 1138.4 μg/mL
[22] = Short treatment, -S9 mix, dose 1821.4 μg/mL

Nc1cc([N+](=O)[O-])ccc1C(=O)O [4-Nitroanthranilic acid]
TK6 assay result (mutant frequency increase, judgment) ([1]; 4h treatment (+S9)): no increase in mutation frequency | TK6 assay result (mutant frequency increase, judgment) ([1]; 4h treatment (+S9), listed as 4-nitroanthranilic acid): negative | TK6 assay result (mutant frequency increase, judgment) ([1]; 4h treatment (-S9)): no increase in mutation frequency | TK6 assay result (mutant frequency increase, judgment) ([1]; 4h treatment (-S9), listed as 4-nitroanthranilic acid): negative | TK mutation assay, Long term ([1]; 24 h, without S9): Pos | TK6 assay result (mutant frequency increase, judgment) ([1]; 24h treatment (-S9)): statistically significant increase in mutation frequency | TK6 assay result (mutant frequency increase, judgment) ([1]; 24h treatment (-S9), listed as 4-nitroanthranilic acid): positive | %SG [1, 4]: 68.7% | Mut. freq. (×10-6) N-MF [1, 4]: 1.8 ×10-6 | Mut. freq. (×10-6) S-MF [1, 4]: 3.9 ×10-6 | Mut. freq. (×10-6) T-MF [1, 4]: 5.6 ×10-6 | %SG [1, 5]: 61.0% | Mut. freq. (×10-6) N-MF [1, 5]: 3.1 ×10-6 | Mut. freq. (×10-6) S-MF [1, 5]: 4.8 ×10-6 | Mut. freq. (×10-6) T-MF [1, 5]: 7.9 ×10-6 | %SG [1, 6]: 63.1% | Mut. freq. (×10-6) N-MF [1, 6]: 2.6 ×10-6 | Mut. freq. (×10-6) S-MF [1, 6]: 4.4 ×10-6 | Mut. freq. (×10-6) T-MF [1, 6]: 7.0 ×10-6 | %SG [1, 7]: 72.4% | Mut. freq. (×10-6) N-MF [1, 7]: 3.0 ×10-6 | Mut. freq. (×10-6) S-MF [1, 7]: 7.8 ×10-6 | Mut. freq. (×10-6) T-MF [1, 7]: 10.7 ×10-6 | %SG [1, 8]: 57.1% | Mut. freq. (×10-6) N-MF [1, 8]: 4.1 ×10-6 | Mut. freq. (×10-6) S-MF [1, 8]: 5.5 ×10-6 | Mut. freq. (×10-6) T-MF [1, 8]: 9.7 ×10-6 | %SG [1, 9]: 68.5% | Mut. freq. (×10-6) N-MF [1, 9]: 4.4 ×10-6 | Mut. freq. (×10-6) S-MF [1, 9]: 9.5 ×10-6 | Mut. freq. (×10-6) T-MF [1, 9]: 13.9 ×10-6 | Dunnett type test, test statistic [1, 10]: 2.990 | Trend test, test statistic [1, 10]: 4.178 | %SG [1, 11]: 38.9% | Mut. freq. (×10-6) N-MF [1, 11]: 6.7 ×10-6 | Mut. freq. (×10-6) S-MF [1, 11]: 4.3 ×10-6 | Mut. freq. (×10-6) T-MF [1, 11]: 10.9 ×10-6 | %SG [1, 12]: 40.2% | Mut. freq. (×10-6) N-MF [1, 12]: 6.1 ×10-6 | Mut. freq. (×10-6) S-MF [1, 12]: 4.1 ×10-6 | Mut. freq. (×10-6) T-MF [1, 12]: 10.3 ×10-6 | %SG [1, 13]: 44.7% | Mut. freq. (×10-6) N-MF [1, 13]: 4.6 ×10-6 | Mut. freq. (×10-6) S-MF [1, 13]: 3.7 ×10-6 | Mut. freq. (×10-6) T-MF [1, 13]: 8.4 ×10-6 | %SG [1, 14]: 49.2% | Mut. freq. (×10-6) N-MF [1, 14]: 5.5 ×10-6 | Mut. freq. (×10-6) S-MF [1, 14]: 5.3 ×10-6 | Mut. freq. (×10-6) T-MF [1, 14]: 10.7 ×10-6 | %SG [1, 15]: 37.9% | Mut. freq. (×10-6) N-MF [1, 15]: 6.4 ×10-6 | Mut. freq. (×10-6) S-MF [1, 15]: 3.9 ×10-6 | Mut. freq. (×10-6) T-MF [1, 15]: 10.3 ×10-6 | %SG [1, 16]: 43.4% | Mut. freq. (×10-6) N-MF [1, 16]: 6.4 ×10-6 | Mut. freq. (×10-6) S-MF [1, 16]: 4.9 ×10-6 | Mut. freq. (×10-6) T-MF [1, 16]: 11.3 ×10-6 | %SG [1, 17]: 60.5% | Mut. freq. (×10-6) N-MF [1, 17]: 3.6 ×10-6 | Mut. freq. (×10-6) S-MF [1, 17]: 5.5 ×10-6 | Mut. freq. (×10-6) T-MF [1, 17]: 9.0 ×10-6 | %SG [1, 18]: 56.6% | Mut. freq. (×10-6) N-MF [1, 18]: 3.8 ×10-6 | Mut. freq. (×10-6) S-MF [1, 18]: 4.9 ×10-6 | Mut. freq. (×10-6) T-MF [1, 18]: 8.7 ×10-6 | %SG [1, 19]: 46.7% | Mut. freq. (×10-6) N-MF [1, 19]: 4.2 ×10-6 | Mut. freq. (×10-6) S-MF [1, 19]: 3.7 ×10-6 | Mut. freq. (×10-6) T-MF [1, 19]: 7.9 ×10-6 | %SG [1, 20]: 48.9% | Mut. freq. (×10-6) N-MF [1, 20]: 4.3 ×10-6 | Mut. freq. (×10-6) S-MF [1, 20]: 4.2 ×10-6 | Mut. freq. (×10-6) T-MF [1, 20]: 8.5 ×10-6 | %SG [1, 21]: 52.7% | Mut. freq. (×10-6) N-MF [1, 21]: 3.7 ×10-6 | Mut. freq. (×10-6) S-MF [1, 21]: 4.1 ×10-6 | Mut. freq. (×10-6) T-MF [1, 21]: 7.8 ×10-6 | %SG [1, 22]: 65.9% | Mut. freq. (×10-6) N-MF [1, 22]: 3.0 ×10-6 | Mut. freq. (×10-6) S-MF [1, 22]: 5.9 ×10-6 | Mut. freq. (×10-6) T-MF [1, 22]: 9.0 ×10-6 | Dunnett type test, test statistic ([1]; Short-term treatment with metabolic activation): 0.732 | Dunnett type test, test statistic ([1]; Short-term treatment without metabolic activation): 0.791 | MF ([1]; 24 h, -S9 mix, 173.70 μg/mL): 5.6 | MF ([1]; 24 h, -S9 mix, 277.90 μg/mL): 7.9 | MF ([1]; 24 h, -S9 mix, 444.70 μg/mL): 7.0 | MF ([1]; 24 h, -S9 mix, 711.5 μg/mL): 10.7 | MF ([1]; 24 h, -S9 mix, 1138.4 μg/mL): 9.7 | MF ([1]; 24 h, -S9 mix, 1821.4 μg/mL): 13.9 | MF [1, 11]: 10.9 | MF [1, 12]: 10.3 | MF ([1]; Short treatment, +S9 mix, dose 444.7 μg/mL): 8.4 | MF ([1]; Short treatment, +S9 mix, dose 711.5 μg/mL): 10.7 | MF ([1]; Short treatment, +S9 mix, dose 1138.4 μg/mL): 10.3 | MF ([1]; Short treatment, +S9 mix, dose 1821.4 μg/mL): 11.3 | MF [1, 17]: 9.0 | MF [1, 18]: 8.7 | MF [1, 19]: 7.9 | MF [1, 20]: 8.5 | MF [1, 21]: 7.8 | MF [1, 22]: 9.0 | TK mutation assay, With S9 ([1]; short-term 4 h, with rat liver S9): Neg | TK mutation assay, Without S9 ([1]; short-term 4 h, without S9): Neg | Carcinogenicity Studies [2]: Neg | MLA (TK gene locus), With S9 ([3]; with S9): Pos | MLA (TK gene locus), Without S9 ([3]; without S9): Equivocal^d
